Test: method code SF-AS, from DOI: 10.1002/(sici)1521-3897(199907)341:5<499::aid-prac499>3.0.co;2-7
Settings: pH 7.4

SMILES | logD
Nc1nnnn1-c1ccc(Cl)cc1 | 1.41
Nc1nnnn1-c1cc(Cl)c(Cl)cc1Cl | 2.3
Nc1nnnn1-c1ccc2ccccc2c1 | 2.08
Cc1ccc(-n2nnnc2N)cc1Cl | 1.89
Nc1nnnn1-c1cccc2ccccc12 | 1.72
Nc1nnnn1-c1cc(Cl)ccc1Cl | 1.61
Nc1nnnn1-c1cccc(O)c1 | 0.56
Nc1nnnn1-c1ccc(Cl)c(Cl)c1 | 2.06
COc1ccc(-n2nnnc2N)cc1 | 0.85
Nc1nnnn1-c1ccc(O)cc1 | 0.33
Nc1nnnn1-c1cccc([N+](=O)[O-])c1 | 0.67
Nc1nnnn1-c1ccc(Cl)cc1Cl | 1.63
Nc1nnnn1-c1cccc(Cl)c1 | 1.44
Cc1ccc(C)c(-n2nnnc2N)c1 | 1.46
Nc1nnnn1-c1ccccc1 | 0.69
Cc1cccc(-n2nnnc2N)c1 | 1.24
Nc1nnnn1-c1ccc(F)cc1 | 0.75
Nc1nnnn1-c1c(Cl)cccc1Cl | 1.56
Nc1nnnn1-c1ccc([N+](=O)[O-])cc1 | 0.77
Nc1nnnn1-c1ccc(Br)cc1 | 1.64
CCOc1ccc(-n2nnnc2N)cc1 | 1.32
COc1ccccc1-n1nnnc1N | 0.56
Nc1nnnn1-c1ccccc1Cl | 0.87
Cc1ccccc1-n1nnnc1N | 0.93
